# Molecular target: MAP kinase p38 (Homo sapiens, UniProt O15264+Q15759+Q16539+P53778)
# Test: Inhibition of TNF-alpha production by lipopolysaccharide-stimulated human peripheral blood mononuclear cells
# Format: functional
row,SMILES,IC50 [nM]
1,Nc1ccc2c(-c3ccncc3)c(-c3ccc(F)cc3)[nH]c2n1,37
2,COc1cccc(COc2cc(N)[nH]c3nc(-c4ccc(F)cc4)c(-c4ccncc4)c2-3)c1,1.5
3,Nc1cc(OCCCc2ccccc2)c2c(-c3ccncc3)c(-c3ccc(F)cc3)[nH]c2n1,9
4,CCCCOc1cc(N)[nH]c2nc(-c3ccc(F)cc3)c(-c3ccncc3)c1-2,4
5,Nc1cc(OCc2ccccc2)c2c(-c3ccncc3)c(-c3ccc(F)cc3)[nH]c2n1,0.91

# — ChEMBL document CHEMBL1131271, “Potent inhibitors of the MAP kinase p38” (Bioorg Med Chem Lett, 1998)
